Experimental data reported in the CheMixHub viscosity set.

Test: xn = mol fraction of the nth substance listed

CC(C)C=O + CCCCO
100 kPa
Conditions | viscosity [mPa·s]
294.4 K, x1 = 0.76 | 8.02
296.4 K, x1 = 0.6 | 13.17
296.9 K, x1 = 0.9 | 5.36
314.5 K, x1 = 0.6 | 8.56

CCC(O)CO (configuration not stated) + CCCCO
viscosity [mPa·s], 100 kPa
Conditions | x2 = 0.101 | x2 = 0.2 | x2 = 0.302 | x2 = 0.4 | x2 = 0.5 | x2 = 0.501 | x2 = 0.601 | x2 = 0.701 | x2 = 0.801 | x2 = 0.901
298.15 K | 34.46 | 23.34 | 17.03 | 12.19 | 8.818 | – | 6.546 | 5.014 | 3.978 | 3.113
303.15 K | 25.85 | 17.61 | 13.14 | 10.08 | 7.482 | – | 5.629 | 4.383 | 3.441 | 2.757
308.15 K | 19.83 | 13.86 | 10.42 | 8.155 | 6.2 | – | 4.703 | 3.738 | 2.982 | 2.41
313.15 K | 15.54 | 10.92 | 8.434 | 6.703 | 5.179 | – | 3.992 | 3.217 | 2.596 | 2.122
318.15 K | 12.35 | 8.882 | 6.942 | 5.58 | – | 4.373 | 3.419 | 2.793 | 2.271 | 1.874
323.15 K | 9.916 | 7.286 | 5.744 | 4.694 | – | 3.724 | 2.942 | 2.417 | 1.989 | 1.66

Nc1ccccc1 + CCCCO
Conditions | viscosity [mPa·s]
298.15 K, 101 kPa, x1 = 0.09983 | 2.368
298.15 K, 101 kPa, x1 = 0.1935 | 2.278
298.15 K, 101 kPa, x1 = 0.3051 | 2.249
298.15 K, 101 kPa, x1 = 0.4055 | 2.287
298.15 K, 101 kPa, x1 = 0.4837 | 2.343
298.15 K, 101 kPa, x1 = 0.6005 | 2.474
298.15 K, 101 kPa, x1 = 0.6946 | 2.637
298.15 K, 101 kPa, x1 = 0.8028 | 2.899
298.15 K, 101 kPa, x1 = 0.8996 | 3.231
303 K, 101.33 kPa, x1 = 0.1 | 2.031
303 K, 101.33 kPa, x1 = 0.2 | 1.975
303 K, 101.33 kPa, x1 = 0.3 | 1.951
303 K, 101.33 kPa, x1 = 0.4 | 1.938
303 K, 101.33 kPa, x1 = 0.5 | 1.962
303 K, 101.33 kPa, x1 = 0.6 | 2.013
303 K, 101.33 kPa, x1 = 0.7 | 2.186
303 K, 101.33 kPa, x1 = 0.8 | 2.342
303 K, 101.33 kPa, x1 = 0.9 | 2.751
303.15 K, 100 kPa, x1 = 0.1195 | 2.083
303.15 K, 100 kPa, x1 = 0.2339 | 1.951
303.15 K, 100 kPa, x1 = 0.3649 | 1.857
303.15 K, 100 kPa, x1 = 0.4693 | 1.843
303.15 K, 100 kPa, x1 = 0.5498 | 1.878
303.15 K, 100 kPa, x1 = 0.6658 | 1.994
303.15 K, 100 kPa, x1 = 0.7945 | 2.261
303.15 K, 100 kPa, x1 = 0.9166 | 2.647
303.15 K, 101 kPa, x1 = 0.09983 | 2.049
303.15 K, 101 kPa, x1 = 0.1935 | 1.965
303.15 K, 101 kPa, x1 = 0.3051 | 1.941
303.15 K, 101 kPa, x1 = 0.4055 | 1.965
303.15 K, 101 kPa, x1 = 0.4837 | 2.01
303.15 K, 101 kPa, x1 = 0.6005 | 2.13
303.15 K, 101 kPa, x1 = 0.6946 | 2.248
303.15 K, 101 kPa, x1 = 0.8028 | 2.468
303.15 K, 101 kPa, x1 = 0.8996 | 2.745
308.15 K, 101 kPa, x1 = 0.09983 | 1.8
308.15 K, 101 kPa, x1 = 0.1935 | 1.734
308.15 K, 101 kPa, x1 = 0.3051 | 1.703
308.15 K, 101 kPa, x1 = 0.4055 | 1.722
308.15 K, 101 kPa, x1 = 0.4837 | 1.77
308.15 K, 101 kPa, x1 = 0.6005 | 1.857
308.15 K, 101 kPa, x1 = 0.6946 | 1.971
308.15 K, 101 kPa, x1 = 0.8028 | 2.144
308.15 K, 101 kPa, x1 = 0.8996 | 2.375
313.15 K, 100 kPa, x1 = 0.1195 | 1.605
313.15 K, 100 kPa, x1 = 0.2339 | 1.484
313.15 K, 100 kPa, x1 = 0.3649 | 1.39
313.15 K, 100 kPa, x1 = 0.4693 | 1.364
313.15 K, 100 kPa, x1 = 0.5498 | 1.393
313.15 K, 100 kPa, x1 = 0.6658 | 1.492
313.15 K, 100 kPa, x1 = 0.7945 | 1.709
313.15 K, 100 kPa, x1 = 0.9166 | 2.027
313.15 K, 101 kPa, x1 = 0.09983 | 1.568
313.15 K, 101 kPa, x1 = 0.1935 | 1.5
313.15 K, 101 kPa, x1 = 0.3051 | 1.44
313.15 K, 101 kPa, x1 = 0.4055 | 1.468
313.15 K, 101 kPa, x1 = 0.4837 | 1.529
313.15 K, 101 kPa, x1 = 0.6005 | 1.613
313.15 K, 101 kPa, x1 = 0.6946 | 1.709
313.15 K, 101 kPa, x1 = 0.8028 | 1.861
313.15 K, 101 kPa, x1 = 0.8996 | 2.048

Oc1ccc2ccccc2c1 + CCCCO
viscosity [mPa·s], 101 kPa
Conditions | x1 = 0.04 | x1 = 0.08 | x1 = 0.12 | x1 = 0.16 | x1 = 0.2
293.15 K | 3.344 | 3.751 | 4.242 | 4.879 | 5.596
303.15 K | 2.529 | 2.808 | 3.17 | 3.582 | 4.024
313.15 K | 1.974 | 2.175 | 2.421 | 2.751 | 3.144
323.15 K | 1.592 | 1.712 | 1.882 | 2.11 | 2.374

CCNCC + CCCCOCCO
viscosity [mPa·s], 100 kPa
Conditions | 298.15 K | 303.15 K | 308.15 K
x2 = 0.0499 | 0.35 | 0.335 | 0.31
x2 = 0.1001 | 0.417 | 0.391 | 0.368
x2 = 0.1508 | 0.485 | 0.45 | 0.423
x2 = 0.2001 | 0.561 | 0.523 | 0.492
x2 = 0.2997 | 0.758 | 0.693 | 0.647
x2 = 0.3995 | 1.028 | 0.933 | 0.865
x2 = 0.5 | 1.356 | 1.212 | 1.116
x2 = 0.5999 | 1.72 | 1.516 | 1.389
x2 = 0.7 | 2.083 | 1.832 | 1.673
x2 = 0.7999 | 2.407 | 2.101 | 1.913
x2 = 0.8997 | 2.662 | 2.319 | 2.1
x2 = 0.9495 | 2.769 | 2.415 | 2.181

Nc1ccccc1 + CCCCOCCO
viscosity [mPa·s]
Conditions | 298 K | 303 K | 303.15 K | 308 K | 313 K | 318 K
101 kPa, x1 = 0.138 | – | – | 2.999 | – | – | –
101 kPa, x1 = 0.2648 | – | – | 3.156 | – | – | –
101 kPa, x1 = 0.3818 | – | – | 3.287 | – | – | –
101 kPa, x1 = 0.49 | – | – | 3.4 | – | – | –
101 kPa, x1 = 0.5903 | – | – | 3.486 | – | – | –
101 kPa, x1 = 0.6837 | – | – | 3.553 | – | – | –
101 kPa, x1 = 0.7708 | – | – | 3.614 | – | – | –
101 kPa, x1 = 0.8522 | – | – | 3.666 | – | – | –
101 kPa, x1 = 0.9284 | – | – | 3.707 | – | – | –
101.3 kPa, x2 = 0.0995 | 3.539 | 2.974 | – | 2.573 | 2.238 | 1.967
101.3 kPa, x2 = 0.1968 | 3.471 | 2.915 | – | 2.528 | 2.189 | 1.929
101.3 kPa, x2 = 0.2548 | 3.448 | 2.887 | – | 2.512 | 2.184 | 1.922
101.3 kPa, x2 = 0.3024 | 3.429 | 2.886 | – | 2.507 | 2.16 | 1.905
101.3 kPa, x2 = 0.3953 | 3.397 | 2.86 | – | 2.482 | 2.145 | 1.893
101.3 kPa, x2 = 0.4355 | 3.39 | 2.854 | – | 2.477 | 2.143 | 1.892
101.3 kPa, x2 = 0.5146 | 3.35 | 2.833 | – | 2.463 | 2.123 | 1.875
101.3 kPa, x2 = 0.5909 | 3.31 | 2.805 | – | 2.438 | 2.108 | 1.856
101.3 kPa, x2 = 0.6936 | 3.219 | 2.731 | – | 2.381 | 2.07 | 1.827
101.3 kPa, x2 = 0.8002 | 3.1 | 2.588 | – | 2.332 | 2.02 | 1.787
101.3 kPa, x2 = 0.8933 | 2.974 | 2.545 | – | 2.259 | 1.962 | 1.742

CCNCC + CCCCOCCOCCO
viscosity [mPa·s], 100 kPa
Conditions | 298.15 K | 303.15 K | 308.15 K
x2 = 0.05043 | 0.3695 | 0.3487 | 0.3286
x2 = 0.09991 | 0.457 | 0.4294 | 0.4036
x2 = 0.1494 | 0.5594 | 0.5411 | 0.4914
x2 = 0.2 | 0.699 | 0.6487 | 0.6022
x2 = 0.3 | 1.062 | 0.9662 | 0.8961
x2 = 0.4001 | 1.56 | 1.376 | 1.288
x2 = 0.5 | 2.156 | 1.896 | 1.722
x2 = 0.6 | 2.817 | 2.45 | 2.215
x2 = 0.6997 | 3.484 | 3.007 | 2.686
x2 = 0.7998 | 4.107 | 3.511 | 3.132
x2 = 0.9 | 4.667 | 3.966 | 3.532
x2 = 0.9491 | 4.904 | 4.167 | 3.705

CN(CCO)CCO + CCCCn1cc[n+](C)c1.F[B-](F)(F)F
Conditions | viscosity [mPa·s]
323.15 K, 101 kPa, x2 = 0.6997 | 20.65

COCCOCCOCCO + CCCN
298.15 K, 101 kPa
Conditions | viscosity [mPa·s]
x1 = 0.0053 | 0.369
x1 = 0.0087 | 0.378
x1 = 0.0251 | 0.415
x1 = 0.0368 | 0.44
x1 = 0.068 | 0.514
x1 = 0.081 | 0.549
x1 = 0.105 | 0.617
x1 = 0.1254 | 0.682
x1 = 0.1752 | 0.861
x1 = 0.2146 | 1.034
x1 = 0.2627 | 1.279
x1 = 0.2934 | 1.456
x1 = 0.3347 | 1.724
x1 = 0.3651 | 1.935
x1 = 0.4217 | 2.362
x1 = 0.471 | 2.749
x1 = 0.5445 | 3.35
x1 = 0.574 | 3.599
x1 = 0.6281 | 4.032
x1 = 0.6683 | 4.359
x1 = 0.7088 | 4.66
x1 = 0.7716 | 5.104
x1 = 0.812 | 5.359
x1 = 0.8595 | 5.626
x1 = 0.8867 | 5.774
x1 = 0.9185 | 5.92

Oc1ccc2ccccc2c1 + CCCO
viscosity [mPa·s], 101 kPa
Conditions | x1 = 0.04 | x1 = 0.08 | x1 = 0.12 | x1 = 0.16 | x1 = 0.2
293.15 K | 2.6 | 3.004 | 3.529 | 4.172 | 4.954
303.15 K | 2.025 | 2.288 | 2.658 | 3.1 | 3.63
313.15 K | 1.635 | 1.803 | 2.062 | 2.37 | 2.764
323.15 K | 1.326 | 1.447 | 1.636 | 1.869 | 2.168
